Test results published in PMC4408270 (Bioorganic & medicinal chemistry letters, 2015).
Numbering of substitutions follows the chain as printed. Entries after “also recorded” stand apart in the source; their conditions may differ. Like-named read-outs stand apart in the source and are kept apart here.

Experiments:
CCK1R [1] = target: T1, CCK1R (Homo sapiens, UniProt P32238); experiment: Competition binding of orthosteric radioligand 125I-CCK, CHO cell membranes
T1 sequence (P32238 1-428): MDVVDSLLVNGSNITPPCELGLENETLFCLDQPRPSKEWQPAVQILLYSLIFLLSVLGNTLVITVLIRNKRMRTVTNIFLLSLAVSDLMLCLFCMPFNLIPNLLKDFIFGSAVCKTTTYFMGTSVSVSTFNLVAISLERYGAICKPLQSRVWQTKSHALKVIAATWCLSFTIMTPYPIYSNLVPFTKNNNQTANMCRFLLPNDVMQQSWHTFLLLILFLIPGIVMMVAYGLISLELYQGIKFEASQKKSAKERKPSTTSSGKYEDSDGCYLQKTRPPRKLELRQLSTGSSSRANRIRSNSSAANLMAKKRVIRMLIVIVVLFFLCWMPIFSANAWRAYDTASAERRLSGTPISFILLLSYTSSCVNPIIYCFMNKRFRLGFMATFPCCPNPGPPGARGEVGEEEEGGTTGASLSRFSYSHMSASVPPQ

CCK1R [2] = target: T1, CCK1R; experiment: Intracellular calcium response in CHO-CCK1R cells; format: cell-based; conditions: % of the ATP (0.1mM) positive control
CCK2R [3] = target: T2, CCK2R (Homo sapiens, UniProt P32239); experiment: Intracellular calcium response in CHO-CCK2R cells; format: cell-based
T2 sequence (P32239 1-447): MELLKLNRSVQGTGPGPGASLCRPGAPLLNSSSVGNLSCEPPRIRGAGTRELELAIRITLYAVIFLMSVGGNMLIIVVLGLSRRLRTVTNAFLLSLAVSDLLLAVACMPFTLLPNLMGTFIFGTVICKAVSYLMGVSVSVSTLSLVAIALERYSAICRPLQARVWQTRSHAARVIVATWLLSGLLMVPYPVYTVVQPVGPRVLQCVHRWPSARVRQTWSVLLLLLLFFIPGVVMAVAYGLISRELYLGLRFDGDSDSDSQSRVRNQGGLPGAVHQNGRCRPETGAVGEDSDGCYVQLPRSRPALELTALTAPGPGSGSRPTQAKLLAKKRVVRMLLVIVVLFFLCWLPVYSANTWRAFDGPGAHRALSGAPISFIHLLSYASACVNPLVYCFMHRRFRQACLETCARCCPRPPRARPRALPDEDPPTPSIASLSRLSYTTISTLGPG

CCK1R [4] = target: T1, CCK1R; format: cell-based
CCK2R TM2 (T2.61N) [5] = target: T3, CCK2R TM2 (T2.61N) (Homo sapiens, UniProt P32239, T111N); experiment: 125I-BDZ-2 competition binding, chimeric construct; conditions: NDB = no detectable binding
T3 sequence (P32239 1-447 T111N): T2 sequence (P32239 1-447) with T111N

CCK2R TM2 (T2.61N) [6] = target: T3, CCK2R TM2 (T2.61N); experiment: 125I-CCK competition binding, chimeric construct
[7] = target: T4, CCK2R TM3 (V3.28T, S3.29T) (Homo sapiens, UniProt P32239, S131T/V130T); experiment: 125I-CCK competition binding, chimeric construct
T4 sequence (P32239 1-447 V130T/S131T): T2 sequence (P32239 1-447) with V130T, S131T

[8] = target: T5, CCK2R TM6 (V6.51I, Y6.52F) (Homo sapiens, UniProt P32239, V349I/Y350F); experiment: 125I-BDZ-2 competition binding, chimeric construct
T5 sequence (P32239 1-447 V349I/Y350F): T2 sequence (P32239 1-447) with V349I, Y350F

[9] = target: T5, CCK2R TM6 (V6.51I, Y6.52F); experiment: 125I-CCK competition binding, chimeric construct
[10] = system: CCK2R TM chimeric constructs; experiment: 125I-BDZ-2 competition binding, CCK2R-based chimeras as a group
CCK2R [11] = target: T2, CCK2R; experiment: Competition binding of orthosteric radioligand 125I-CCK, CHO cell membranes; conditions: 125I-CCK radioligand

SMILES	IC50 (CCK1R [1])	Intrinsic agonist response (CCK1R [2]; 100nM compound)	Intrinsic agonist response (CCK1R [2]; 1µM compound)	Intracellular calcium response at CCK2R-expressing cells (CCK2R [3])	Shift to the right in the CCK dose-response curve (CCK1R [4]; 100nM compound)	Decrease in efficacy of the CCK response (CCK1R [4]; 1µM compound)	Shift to the right in the CCK dose-response curve (CCK1R [4]; 1µM compound)	IC50, 125I-BDZ-2 (CCK2R TM2 (T2.61N) [5])	IC50 (CCK2R TM2 (T2.61N) [6])	Right shift (poorer affinity) vs wild type CCK2R (CCK2R TM2 (T2.61N) [6]; 125I-CCK, CCK2R TM2 substitution)	IC50 [7]	IC50 [8]	IC50 [9]	Change in binding affinity at chimeras vs wild type CCK2R [10]	Fold lower IC50 at CCK2R than at CCK1R (CCK2R [11])	Allosteric modulatory (PAM) activity on CCK dose-response curve (CCK1R [4]; increasing concentrations of compound)
COc1ccc(N(C)C(=O)CN2C(=O)C(NC(=O)Nc3ccccc3)C(=O)N(c3ccccc3)c3ccccc32)cc1 (stereo not drawn) [GR135470X]	450 ± 104 nM	43%	48%	stimulated no intracellular calcium responses	3.6 fold	14%	8.5 fold	NDB	519 ± 138 nM	10 fold	10.1 ± 1.6 nM	36 ± 5.5 nM	165 ± 38 nM	none of the chimeras tested exhibited a change in binding affinities	~ 9 fold	–
O=C(CN1C(=O)C(NC(=O)Nc2ccccc2)C(=O)N(c2ccccc2)c2ccccc21)Nc1ccccc1 (stereo not drawn)	–	–	–	stimulated no intracellular calcium responses	–	11%	–	–	–	–	–	–	–	–	–	–
CC(C)N(C(=O)CN1C(=O)[C@H](NC(=O)Nc2cccc(C(=O)O)c2)C(=O)N(c2ccccc2)c2ccccc21)c1ccccc1 [GI181771X, reference compound]	–	–	–	–	–	–	–	–	–	–	–	–	–	–	–	did not yield a significant left-shift or an increase in efficacy; also recorded: no PAM activity
